Results from patent publication US20060020029A1, “Pharmaceutical compositions from ethnobotanicals” (priority 2004, published 2006).
Converted amounts (≈) assume the structure as drawn. “And” between values parts separate entries of the source, which are not always exact repeats. Equal entries are not always repeated. Where two headings read alike, the source gives them in different places.

Key:
RSV-A2 = assay: CPE assay, RSV-A2 in Hep-2 cells; conditions: Hep-2 cells, CPE assay
Description: The cell line was propagated in MEM supplemented with 10% heat-inactivated fetal bovine serum (FBS) containing 100 μg/ml of antibiotics (streptomycin/penicillin). […] The overnight medium (MEM containing 10% FBS) was removed, and wells were rinsed twice with 1× phosphate buffer saline (PBS, 200 μl) before adding 10×TCID50 of RSV suspension in fresh medium (MEM plus 2% FBS) to each well, except for cell only wells. […] CellTiter 96 Aqueous Non-Radioactive Cell Proliferation Assay (Promega) was used to monitor the antiviral activity following the manufacturer's instruction. After incubation, the cells were rinsed twice with 200 μl of 1×PBS prior to the addition of 100 μl of fresh medium (MEM plus 10% FBS). […] The extent of cell viability was measured at 490 nm using an ELISA reader, and the absorbance was used to calculate percent inhibition. Antiviral activity of each EB fraction or ribavirin is expressed as IC50, which represents the concentration of the test substance required to reduce the virus infection (as measured by the destruction of the host cells) by 50%.
Hep-2 cells were used in the CPE assay to determine anti-RSV properties.

RSV B = assay: CPE assay, RSV-B in Hep-2 cells; assay type: cell-based, respiratory syncytial virus
[1] = tested on: Herpes simplex virus type 1 (MacIntyre strain); assay: CPE assay, HSV-1 specificity; assay type: cell-based; conditions: CPE assay with MDCK or Vero cells
Description: (§1) To determine whether the fractions are specific RSV inhibitors rather than general antiviral agents, the inventors tested them against influenza type A/Shangdong/09/93 (H3N2), herpes simplex type 1 (MacItyre), and herpes simplex type 2 (MS) using the CPE assay system.
(§2) CJ4-16-4 was tested using influenza type A, herpes simplex virus type 1, and herpes simplex virus type 2 using the CPE assay with MDCK or Vero cells.

Vero cells = assay: Cytotoxicity (MTS) in uninfected Vero cells; conditions: isolated compounds
MDCK cells = assay: Cytotoxicity in MDCK cells; conditions: isolated compounds
[2] = tested on: Herpes simplex virus type 2 (MS-strain); assay: CPE assay, HSV-2 specificity; assay type: cell-based; conditions: CPE assay with MDCK or Vero cells
Description: as §1, §2

[3] = tested on: RSV-Long (Cotton Rat adapted strain); assay: CPE assay, RSV-Long cotton rat adapted strain; assay type: cell-based, respiratory syncytial virus; conditions: Hep-2 cells, CPE assay
[4] = tested on: Influenza A-Shangdong/09/93 (H3N2); assay: CPE assay, influenza A specificity; assay type: cell-based, influenza type A; conditions: CPE assay with MDCK or Vero cells
Description: as §1, §2

RSV (Long strain) = assay: CPE assay, RSV-Long in Hep-2 cells; assay type: cell-based, respiratory syncytial virus
Hep-2 cells = assay: Cytotoxicity (MTS) in uninfected Hep-2 cells; conditions: isolated compounds
RSV-Long [5] = assay: Time of addition, CPE assay; assay type: cell-based, respiratory syncytial virus; conditions: human respiratory syncytial virus
Description: Determine the Time of Addition for EB Fractions. […] This activity is related to the life cycle of the virus and the step in the cycle where the compounds act. In this example, experiments were performed to investigate the effect of the time of addition of EB fractionated products on anti-RSV activity.
Mechanism of action studies were performed as follows. Mechanism of action studies were performed using CJ4-16-4 in a CPE assay with Hep-2 cells.

RSV-Long [6] = assay: Viral RNA analysis (RiboGreen); assay type: cell-based, respiratory syncytial virus; conditions: for RNA Concentration: three days
Description: The method for analysis of viral RNA is as follows. Six well plates were infected with 1 ml stock of RSV-Long (10×TCID50) diluted 1:20 in infection medium (DMEM+2% FBS). The plates were incubated in 37° C. incubators for 60 min, after which the inoculum was removed and the plates were rinsed. […] Each concentration was added in duplicate. […] After three days, the culture supernatants were transferred into clean conical tubes and subjected to centrifugation at low speed to remove cell debris. […] RNA was extracted using a commercial RNA extraction kit purchased from Epicentre Technologies (Madison, WI). The procedure was performed according to the manufacturer's instructions, and samples were stored at −20° C. The level of viral RNA in each sample was determined using the RiboGreen® RNA quantitative kit (Molecular Probes, Eugene, Oreg.) according the manufacturer's instructions.

RSV [7] = assay: Viral yield assay (VYA); assay type: cell-based, respiratory syncytial virus
Description: The materials and methods used for VYA are as follows. […] Each concentration of the test articles or control drug was tested in triplicate wells. […] The aliquots from each of the eight wells of a given column were transferred to the first column of a fresh 96-well monolayer culture of Hep-2 cells. The contents were mixed and serially diluted across the remaining columns of the secondary plate. Each column of the original primary plate was diluted across a separate plate in this manner. The cultures were incubated for 7 additional days, and the end point was monitored by CPE assay as described above.

RSV-Long [8] = assay: Plaque reduction assay (PRA); assay type: cell-based; conditions: human respiratory syncytial virus, HEp-2; Table 3, plaque reduction assay
Description: The materials and methods used for PRA are as follows. […] The overlay was prepared by mixing 1 part of 1.2% SeaPlaque and 1 part 2×MEM containing 4% FBS, plus appropriate concentrations of each EB fraction or ribavirin. Each concentration of the EB fraction or ribavirin was tested in duplicate wells. After 7 days, the agarose was carefully removed and cells were rinsed twice with 2 ml of PBS. The cell monolayer was fixed using 0.2% crystal violet in 20% methanol at room temperature. After 30 minutes, the fixer was removed by washing with deionized water, and the plates were air-dried prior to counting plaques. The number of plaques obtained for each fraction or ribavirin was expressed as a percentage of the control. The percentage values obtained were used to calculate IC50 values.

RSV A2 = assay: Cotton rat RSV infection model, pulmonary titer
Description: All groups consisted of four randomly selected cotton rats. All test materials were administered intraperitoneally with once daily dosing. The placebo group was administered distilled water at volumes and schedules identical to the other groups receiving investigational test articles. In general, timing of administration of ribavarin to the ribavarin-treated group paralleled that of the other treatment groups except that initiation of dosing was on Day 1 for Experiments 1 and 2 and Day 0 for Experiment 3. The dose of ribavarin was 90 mg/kg/day in Experiments 1 and 3 and 180 mg/kg/day in Experiment 2. All animals were inoculated intranasally with approximately 100 median cotton rat infectious doses (CRID50) of RSV A2 on Day 0. Experiments were terminated on either Day 3 or 4 post-infection. […] On the day that the experiment was terminated, all CRs were sacrificed using CO2 to asphyxiate the animals. The lungs from the animals were subsequently removed. The lungs of sacrificed animals were removed, rinsed in sterile phosphate-buffered saline (PBS; pH 7.2) and weighed. Each set of lungs was then transpleurally lavaged using 3 ml of 2% FCS-MEM media. The resulting lung fractions were kept on ice until they were assayed for RSV. The lung fractions of animals from each group were tested for the levels of RSV present.

in vitro [9] = conditions: human
in vitro [10] = conditions: African green monkey
RSV [11] = assay: Limited pretreatment of host cells, CPE assay; assay type: cell-based, respiratory syncytial virus; conditions: removed before infection
Description: A limited pretreatment of host cells with EB fractions was investigated as follows. […] The cells were incubated in fresh medium without the test article. After 7 days, the viral inhibition was evaluated using CPE assay protocol.

[12] = human respiratory syncytial virus, HEp-2, Table 2, extracted fractions, average of two or three experiments
[13] = 90 mg/kg/day B.I.D i.p. D0-D3, water, harvest day 4

## O=C(/C=C/c1ccc(O)c(O)c1)O[C@H]1[C@H](O)C[C@](O)(C(=O)O)C[C@H]1OC(=O)/C=C/c1ccc(O)c(O)c1 [CJ2-27-4, 4,5-dicaffeoylquinic acid]
RSV-A2
  EC50, RSV-A2: 0.521 µg/mL (≈ 1.01 µM)
RSV B; Hep-2 cells, CPE assay
  EC50, RSV-B (Washington): 0.218 µg/mL (≈ 0.422 µM)
[1]
  EC50, Herpes simplex virus type 1 (MacIntyre strain): >50 µg/mL
Vero cells
  CC50, Vero: >200 µg/mL
MDCK cells
  CC50, MDCK: >200 µg/mL
[2]
  EC50, Herpes simplex virus type 2 (MS-strain): >50 µg/mL
[3]
  EC50, RSV-Long (Cotton Rat adapted strain): 5.519 µg/mL (≈ 10.7 µM)
[4]
  EC50, Influenza A-Shangdong/09/93 (H3N2): >50 µg/mL
RSV (Long strain); Hep-2 cells, CPE assay
  EC50, RSV-Long: 0.052 µg/mL (≈ 0.101 µM)
Hep-2 cells
  CC50, Hep 2: >200 µg/mL

## NC(=O)c1ncn([C@@H]2O[C@H](CO)[C@@H](O)[C@H]2O)n1 [Ribavirin]
RSV-Long [5]; addition 0 h, 10×TCID50 RSV-Long, Hep-2
  IC50: 3.6 ± 0.36 µg/mL (≈ 14.7 µM)
RSV-Long [5]; addition +7 h post-infection
  IC50: 3.9 ± 0.64 µg/mL (≈ 16 µM)
RSV-Long [5]; addition +26 h post-infection
  IC50: 4.43 ± 0.88 µg/mL (≈ 18.1 µM)
RSV-Long [6]; drug concentration 1 μg/ml
  RNA Concentration: 450 ng/mL
RSV-Long [6]; drug concentration 20 μg/ml
  RNA Concentration: 225 ng/mL
RSV-Long [6]; drug concentration increased from 1 to 20 μg/ml
  reduction of viral RNA: 2 fold
RSV B; [12]
  IC50: 3.2 ± 0.5 µg/mL (≈ 13.1 µM)
RSV [7]; 3.1 μg/ml
  Mean Titer: 3 log 10
  Reduction of viral titer: 1 log10
RSV [7]; 25.0 μg/ml
  Mean Titer: 2 log 10
  Reduction of viral titer: 2 log10
RSV-Long [8]
  IC50: 3.84 µg/mL (≈ 15.7 µM)
RSV A2; 90 mg/kg/day B.I.D i.p. D0-D3, vs placebo
  Reduction: 2.9 Log 10
RSV A2; [13]
  RSV Pulmonary Titer Mean ± SD: 1.5 ± 1.8 log10/g lung
  RSV Pulmonary Titer in individual CR (A-D): 2.8 log10/g lung and 3.3 log10/g lung and 0 log10/g lung (2×)
RSV A2; Experiment 1
  reduction of mean viral titer: 2.5 logs
RSV A2; Experiment 1: 100 mg/kg/day i.p. (ribavirin 90 mg/kg/day), harvest Day 4
  RSV pulmonary Mean Titers ± SD: 3.1 ± 0.29 log 10
RSV A2; Experiment 2
  reduction of mean viral titer: 2.5 logs
RSV A2; Experiment 2: 100 mg/kg/day i.p. from Day -1 (ribavirin 180 mg/kg/day), harvest Day 3
  RSV pulmonary Mean Titers ± SD: 2.3 ± 0.4 log 10
RSV A2; Experiment 3
  reduction of mean viral titer: 2.5 logs
RSV A2; Experiment 3: 250 mg/kg/day i.p. from Day -1 (ribavirin 90 mg/kg/day), harvest Day 3
  RSV pulmonary Mean Titers ± SD: 2.2 ± 1.5 log 10
RSV A2; three experiments
  Overall Mean Titer: 2.53 ± 0.73 log 10
  reduction of overall mean viral titer: 2.5 logs
RSV A2; three experiments combined
  animals with no detectable virus: 1 out of 12
RSV (Long strain); [12]
  IC50: 3.8 ± 0.2 µg/mL (≈ 15.6 µM)
In vitro [9]
  CC50 at 7 days: 76.4 ± 4.4 µg/mL (≈ 313 µM)
In vitro [10]
  CC50 at 7 days: > 100 µg/mL
RSV [11]; human respiratory syncytial virus, pre-treatment time 4 hrs, read-out: IC50
  IC50: > 50 µg/mL
RSV [11]; pre-treatment time 0 hrs
  IC50: >50 µg/mL
RSV [11]; pre-treatment time 8 hrs
  IC50: >50 µg/mL
RSV [11]; pre-treatment time 24 hrs
  IC50: >50 µg/mL
